Assay results taken from ChEMBL document CHEMBL1150212, “Antitumor agents, 129. Tannins and related compounds as selective cytotoxic agents” (1992).

Legend:
Type in all cases: functional
Settings in all cases: read-out: ED50 (the source's name)
[1] = Cytotoxicity against human […] cells by tetrazolium salt-based colorimetric assay
[2] = tested on: KB; experiment: Cytotoxicity against human KB cells by tetrazolium salt-based colorimetric assay
[3] = tested on: A549; experiment: Cytotoxicity against human A549 cells by tetrazolium salt-based colorimetric assay
[4] = tested on: HCT-8; experiment: Cytotoxicity against human HCT8 cells by tetrazolium salt-based colorimetric assay
[5] = tested on: TE-671; experiment: Cytotoxicity against human TE671 cells by tetrazolium salt-based colorimetric assay

Structure (SMILES): O=C(O)C[C@@H]1C(=O)O[C@H]2[C@@H]3OC(=O)c4cc(O)c(O)c(O)c4-c4c(cc(O)c(O)c4O)C(=O)OC[C@H]2O[C@@H](OC(=O)c2cc(O)c(O)c(O)c2)[C@@H]3OC(=O)c2cc(O)c(O)c3c2[C@H]1[C@H](O)C(=O)O3 [CHEBULAGIC ACID]
- EC50 [1]: 0.8 µg/mL
- EC50 [2]: > 10 µg/mL
- EC50 [3]: > 10 µg/mL
- EC50 [4]: > 10 µg/mL
- EC50 [5]: > 10 µg/mL

Structure (SMILES): O=C(O)C[C@H]1C(=O)O[C@H]2[C@H](OC(=O)c3cc(O)c(O)c(O)c3)[C@@H](OC(=O)c3cc(O)c(O)c4c3[C@H]1[C@H](O)C(=O)O4)[C@H](OC(=O)c1cc(O)c(O)c(O)c1)O[C@@H]2COC(=O)c1cc(O)c(O)c(O)c1 [CHEBULINIC ACID]
- EC50 [1]: > 10 µg/mL
- EC50 [2]: > 10 µg/mL
- EC50 [3]: > 10 µg/mL
- EC50 [4]: > 10 µg/mL
- EC50 [5]: > 10 µg/mL

Structure (SMILES): Oc1cc(O)c2c(c1)O[C@H](c1ccc(O)c(O)c1)[C@@H](O)C2 [CIANIDANOL]
- EC50 [1]: > 10 µg/mL
- EC50 [2]: > 10 µg/mL
- EC50 [3]: > 10 µg/mL
- EC50 [4]: > 10 µg/mL
- EC50 [5]: > 10 µg/mL

Structure (SMILES): Oc1cc(O)c2c(c1)O[C@@]1(c3ccc(O)c(O)c3)Oc3cc(O)c4c(c3[C@@H]2[C@H]1O)O[C@H](c1ccc(O)c(O)c1)[C@H](O)[C@H]4c1c(O)cc(O)c2c1O[C@H](c1ccc(O)c(O)c1)[C@H](O)C2 [CINNAMTANNIN B1]
- EC50 [1]: 3.57 µg/mL
- EC50 [2]: > 10 µg/mL
- EC50 [3]: > 10 µg/mL
- EC50 [4]: > 10 µg/mL
- EC50 [5]: > 10 µg/mL

Structure (SMILES): Oc1cc(O)c2c(c1)O[C@H](c1ccc(O)c(O)c1)[C@H](O)[C@H]2c1c(O)cc(O)c2c1O[C@@]1(c3ccc(O)c(O)c3)Oc3cc(O)c4c(c3[C@@H]2[C@H]1O)O[C@H](c1ccc(O)c(O)c1)[C@H](O)[C@H]4c1c(O)cc(O)c2c1O[C@H](c1ccc(O)c(O)c1)[C@H](O)C2 [CINNAMTANNIN B2]
- EC50 [1]: 0.66 µg/mL
- EC50 [2]: > 10 µg/mL
- EC50 [3]: > 10 µg/mL
- EC50 [4]: > 10 µg/mL
- EC50 [5]: > 10 µg/mL

Structure (SMILES): O=C(O[C@@H]1O[C@@H]2COC(=O)c3cc(O)c(O)c(O)c3-c3c(cc(O)c(O)c3O)C(=O)O[C@H]([C@H]1O)[C@@H]2O)c1cc(O)c(O)c(O)c1 [CORILAGIN]
- EC50 [1]: > 10 µg/mL
- EC50 [2]: > 10 µg/mL
- EC50 [3]: > 10 µg/mL
- EC50 [4]: > 10 µg/mL
- EC50 [5]: > 10 µg/mL

Structure (SMILES): O=C(O[C@@H]1O[C@@H]2COC(=O)c3cc(O)c(O)c(O)c3-c3c(cc(O)c(O)c3O)C(=O)O[C@@H]3[C@H]1OC(=O)c1cc(O)c(O)c4c1C1C(O)(O4)[C@]4(O)C[C@@]5(C(=O)O[C@H]6C(O)CO[C@@]65O)[C@]1(CC4=O)C(=O)O[C@@H]32)c1cc(O)c(O)c(O)c1 (stereo not given in full) [ELAEOCARPUSIN]
- EC50 [1]: 2.62 µg/mL
- EC50 [2]: > 10 µg/mL
- EC50 [3]: > 10 µg/mL
- EC50 [4]: > 10 µg/mL
- EC50 [5]: > 10 µg/mL

Structure (SMILES): O=C(O[C@@H]1Cc2c(O)cc(O)cc2O[C@@H]1c1ccc(O)c(O)c1)c1cc(O)c(O)c(O)c1 [EPICATECHIN GALLATE]
- EC50 [1]: 0.55 µg/mL
- EC50 [2]: > 10 µg/mL
- EC50 [3]: > 10 µg/mL
- EC50 [4]: > 10 µg/mL
- EC50 [5]: > 10 µg/mL

Structure (SMILES): O=C(O[C@@H]1O[C@@H]2COC(=O)c3cc(O)c(O)c(O)c3-c3c(cc(O)c(O)c3O)C(=O)O[C@H]2[C@H](OC(=O)c2cc(O)c(O)c(O)c2)[C@H]1OC(=O)c1cc(O)c(O)c(O)c1)c1cc(O)c(O)c(O)c1 [EUGENIIN]
- EC50 [1]: 2.74 µg/mL
- EC50 [2]: > 10 µg/mL
- EC50 [3]: > 10 µg/mL
- EC50 [4]: > 10 µg/mL
- EC50 [5]: > 10 µg/mL

Structure (SMILES): O=C1O[C@H]2[C@H](O)[C@@H](OC(=O)c3cc(O)c(O)c4c3[C@@H]3C1=CC(=O)C(O)(O)C3(O)O4)[C@H](OC(=O)c1cc(O)c(O)c(O)c1)O[C@@H]2CO (stereo not given in full) [FUROSIN]
- EC50 [1]: 0.67 µg/mL
- EC50 [2]: > 10 µg/mL
- EC50 [3]: > 10 µg/mL
- EC50 [4]: > 10 µg/mL
- EC50 [5]: > 10 µg/mL

Structure (SMILES): O=C1O[C@H]2[C@@H]3OC(=O)c4cc(O)c(O)c(O)c4-c4c(cc(O)c(O)c4O)C(=O)OC[C@H]2O[C@@H](OC(=O)c2cc(O)c(O)c(O)c2)[C@@H]3OC(=O)c2cc(O)c(O)c3c2[C@@H]2C1=CC(=O)[C@](O)(O3)C2(O)O [GERANIIN]
- EC50 [1]: 0.35 µg/mL
- EC50 [2]: > 10 µg/mL
- EC50 [3]: > 10 µg/mL
- EC50 [4]: > 10 µg/mL
- EC50 [5]: > 10 µg/mL

Structure (SMILES): O=C1OC[C@H]2OC(=O)c3cc(O)c(O)c(O)c3-c3c(O)c(O)c(O)c4c3C(=O)O[C@H]([C@H]3OC(=O)c5c-4c(O)c(O)c(O)c5[C@@H]3C3(O)OC[C@H](O)[C@@H](O)[C@H]3O)[C@@H]2OC(=O)c2cc(O)c(O)c(O)c2-c2c1cc(O)c(O)c2O (stereo not given in full) [GRANDININ]
- EC50 [1]: 0.1 µg/mL
- EC50 [2]: > 10 µg/mL
- EC50 [3]: > 10 µg/mL
- EC50 [4]: > 10 µg/mL
- EC50 [5]: > 10 µg/mL

Structure (SMILES): O=C(OC[C@H]1OC(O)[C@@](O)(COC(=O)c2cc(O)c(O)c(O)c2)[C@@H]1O)c1cc(O)c(O)c(O)c1 (stereo not given in full) [HAMAMELITANNIN]
- EC50 [1]: > 10 µg/mL
- EC50 [2]: > 10 µg/mL
- EC50 [3]: > 10 µg/mL
- EC50 [4]: > 10 µg/mL
- EC50 [5]: > 10 µg/mL
